{"source": "patent US20210260106A1", "about": "“CHLORITE-CONTAINING COMPOSITIONS” (ClearCrescent Technologies, LLC, priority 2008, published 2021)", "key": {"[1]": {"experiment": "Topical treatment of psoriasis, divided elbow, one subject", "type": "in vivo, human", "details": "for Result after 3 days treated twice daily: elbow section", "text": "Background: A subject suffered from Psoriasis diagnosed […]. They have not undergone treatment for their condition since 1996. They report rash after bathing that turns to white plaques with scaling within days. Treatment 1: […] They then distributed the combination to the entire affected right lateral section of their elbow. Treatment 2: […] They then distributed the combination to the entire affected outside lateral section. Treatment 3: […] They then distributed the combination to the entire affected interior lateral section."}, "[2]": {"test_system": "Trichophyton mentagrophytes ATCC MYA 4439", "experiment": "MIC study in broth culture, sodium chlorite and itraconazole", "type": "cell-based", "details": "for MIC: Trichophyton mentagrophytes, read-out: amount of Itraconazole required to inhibit the fungus (MIC)"}, "[3]": {"test_system": "Trichophyton rubrum ATCC MYA 4438", "experiment": "MIC study in broth culture, sodium chlorite and itraconazole", "type": "cell-based", "details": "for MIC: Trichophyton rubrum, read-out: amount of Itraconazole required to inhibit the fungus (MIC)", "description": "As shown in the examples, in vitro data was generated and the minimum inhibitory concentrations (MIC) tests were determined in broth culture using ATCC MYA 4438. Itraconazole is the azole used in the study. […] On the X-axis are dilutions of itraconazole. Fungal Growth is noted by a + and lack of growth by a −.\nReferring to FIG. 18, the experiments were repeated with the strain Trichophyton rubrum."}, "[4]": {"test_system": "onychomycosis; fungal infections of the skin and nails", "experiment": "Azole antifungals tested on fungal infections of skin and nails", "set-up": "species or system human", "details": "in vivo"}, "[5]": {"type": "in vivo, human", "text": "Compositions were topically applied to various skin and nail conditions. […] The solution was applied by dropper to affected areas, or combined with a bioactive agent and then applied to the affected area or applied sequentially to the affected area at least once daily, preferably twice daily during treatment period. […] Background: A subject was diagnosed with Dyshidrosis in March of 2012. Symptoms included small blisters on the palms of their hands and the underside of their fingers with scaling. […] They abandoned the treatment. Symptoms continued. They occasionally self-treated the condition with over the counter Lamisil. […] Treatment: […]"}, "[6]": {"experiment": "Treatment of dog wound", "type": "in vivo", "details": "rear leg", "text": "Dog was occasionally limping and favoring his rear leg. A 2-inch diameter area of raw red moist skin was observed where hair had fallen out. Upon close inspection a 1,½ inch suppurating cut was observed which created a dark line leading to a 1 cm×2 cm section of blackened skin. Dog had been topically treated with Triamcinolone Acetonide and bandaged previously to no effect.\nThe ratio was 1:1. At the second and third interval Neosporin™ was mixed in hand with other compositions in a 1:1:1 ratio. Dog was not observed to lick wound."}, "[7]": {"test_system": "human cells", "details": "Ingram et al 2004; cited from earlier work"}, "[8]": {"experiment": "Topical treatment of psoriasis on chin and face", "type": "in vivo, human", "details": "three days twice daily", "protocol": "Patient was treated on the chin for three days twice daily. On their right side of the chin, sodium chlorite solution was applied alone.\nThey applied SC combined with CCT's herbal treatment to their right side of their chin. SC+ a composition containing 3.66 g thymol, 3.66 g menthol, 3.66 g menthyl acetate in 100 ml grapeseed oil with 0.25 ounce beeswax."}, "[9]": {"test_system": "dermataphytes that cause tinea pedis and onychomycosis"}, "[10]": {"test_system": "Candidia albicans", "protocol": "An in vitro determination of the use of sodium chlorite on human tissue culture and broth culture of Candidia albicans was performed."}, "[11]": {"test_system": "Candida albicans", "details": "at 0.5%"}}, "note": "Like-named read-outs stand apart in the source and are kept apart here."}
{"compound": "Clc1ccccc1C(c1ccccc1)(c1ccccc1)n1ccnc1", "note": "[1% Clotrimazole cream, Clotrimazole]", "values": [{"measurement": "psoriasis symptoms two days later", "setting": "[1]; Treatment 3, elbow section", "value": "White dry scales were not perceived and the rash was less apparent"}, {"measurement": "Result after 3 days treated twice daily", "setting": "[1]", "value": "plaques are not present"}]}
{"compound": "N#C/C(=C1/SC[C@@H](c2ccc(Cl)cc2Cl)S1)n1ccnc1", "note": "[1% Luliconazole cream, luliconazole]", "values": [{"measurement": "psoriasis symptoms one day later", "setting": "[1]; Treatment 2, elbow section", "value": "White dry scales were perceived though the rash was less apparent"}, {"measurement": "Result after 3 days treated twice daily", "setting": "[1]", "value": "Red Rash and scaling"}, {"measurement": "Result after 3 days treated twice daily", "setting": "[1]; listed as Luliconazole", "value": "red rash and plaques were present"}]}
{"compound": "C=C1CCN([C@H](C)[C@](O)(Cn2cncn2)c2ccc(F)cc2F)CC1", "note": "[10% efinaconazole, efinaconazole]", "values": [{"measurement": "Result after 3 days treated twice daily", "setting": "[1]", "value": "Rash and white scaling"}, {"measurement": "Result after 3 days treated twice daily", "setting": "[1]; listed as efinaconazole", "value": "white dry scales and evidence of rash"}]}
{"compound": "CCC(C)n1ncn(-c2ccc(N3CCN(c4ccc(OCC5COC(Cn6cncn6)(c6ccc(Cl)cc6Cl)O5)cc4)CC3)cc2)c1=O", "note": "(stereo not shown) [Itraconazole, itraconazole]", "values": [{"measurement": "MIC", "setting": "[2]; combined with sodium chlorite", "value": "< 0.03", "unit": "mg/L"}, {"measurement": "MIC", "setting": "[2]; itraconazole alone", "value": 0.125, "unit": "mg/L"}, {"measurement": "decrease of itraconazole MIC", "setting": "[2]; combined with sodium chlorite", "value": "at least 4 fold"}, {"measurement": "MIC", "setting": "[3]; combined with sodium chlorite", "value": "< 0.03", "unit": "mg/L"}, {"measurement": "MIC", "setting": "[3]; itraconazole alone", "value": 0.06, "unit": "mg/L"}, {"measurement": "decrease of itraconazole MIC", "setting": "[3]; combined with sodium chlorite", "value": "at least 2 fold"}]}
{"compound": "CC(=O)N1CCN(c2ccc(OCC3COC(Cn4ccnc4)(c4ccc(Cl)cc4Cl)O3)cc2)CC1", "note": "(stereo not shown) [Ketaconazole]", "values": [{"measurement": "effectiveness against fungal infection of nails/skin", "setting": "[4]", "value": "excellent results"}]}
{"compound": "CN(C/C=C/C#CC(C)(C)C)Cc1cccc2ccccc12", "note": "[Lamisil]", "values": [{"measurement": "local tolerance of earlier treatment", "setting": "[5]; human, in vivo", "value": "stinging"}, {"measurement": "result of earlier treatment of the subject's Dyshidrosis", "setting": "[5]; subject's history before the study", "value": "no significant amelioration of symptoms"}]}
{"compound": "CC1(C)O[C@@H]2C[C@H]3[C@@H]4CCC5=CC(=O)C=C[C@]5(C)[C@@]4(F)[C@@H](O)C[C@]3(C)[C@]2(C(=O)CO)O1", "note": "[Triamcinolone Acetonide]", "values": [{"measurement": "wound outcome", "setting": "[6]", "value": "no effect"}]}
{"compound": "chlorite ions", "values": [{"measurement": "concentration shown to be non-toxic to human cells", "setting": "[7]", "value": 100, "unit": "ppm"}]}
{"compound": "sodium chlorite", "values": [{"measurement": "drop of sodium chlorite's MIC", "setting": "[2]; combined with itraconazole", "value": "two-fold"}, {"measurement": "drop of sodium chlorite's MIC", "setting": "[3]; combined with itraconazole", "value": "eight-fold"}, {"measurement": "recurrence of psoriasis symptoms in treated area of chin, 92 days later", "setting": "[8]", "value": "no recurrence of psoriasis symptoms"}, {"measurement": "effective concentration when combined with azole antifungals", "setting": "[9]; combined with antifungals in the azole group", "value": "≥ 0.015", "unit": "%"}, {"measurement": "effective concentrations alone against dermataphytes", "setting": "[9]; sodium chlorite alone, broth culture and in vivo", "value": "0.25-4%"}, {"measurement": "Candidia albicans killing", "setting": "[10]; 0.5% sodium chlorite in culture broth", "value": "effective in killing"}, {"measurement": "Candidia albicans killing", "setting": "[10]; 0.5% sodium chlorite in culture broth, listed as Sodium Chlorite", "value": "Yes"}, {"measurement": "Candidia albicans killing", "setting": "[10]; 2.0% sodium chlorite in culture broth", "value": "effective in killing"}, {"measurement": "Candidia albicans killing", "setting": "[10]; 2.0% sodium chlorite in culture broth, listed as Sodium Chlorite", "value": "Yes"}, {"measurement": "toxicity against Candidas albicans", "setting": "[10]; at 0.5%", "value": 100, "unit": "%"}, {"measurement": "regrowth of Candidia albicans", "setting": "[10]; continued culture without sodium chlorite", "value": "did not result in regrowth"}, {"measurement": "side by side comparison with standard antifungal agent in vitro", "setting": "[10]; versus fluconazole", "value": "significantly superior results compared to fluconazole"}, {"measurement": "effect on Candida albicans on agar plates", "setting": "[11]", "value": "kills Candida albicans rather than simply inhibiting its growth"}]}
